Experimental findings from patent US9561228B2 (Celgene Avilomics Research, Inc., priority 2013, dated 2017) are described below.

What is called IC50 is the concentration needed to halve the response being measured. Usually GI50 stands for the concentration giving 50% growth inhibition. Low readings indicate more potent growth inhibition, high ones less potent growth inhibition.

The target in one experiment is T1, Erk1 (Homo sapiens, UniProt P27361).
T1 construct: purchased Millipore 14-439
Put plainly: Protein Mass Modification Assay (intact protein MALDI, 60 min, 10-fold excess of compound). It is filed as binding. Here is the method: Protein Mass Modification Assay
Intact protein: Erk1 from Millipore (Cat. No. 14-439) was incubated for 60 min. at room temperature with a 10-fold excess of test compound to protein. 4 μL aliquots of the resulting mixture were diluted with 15 μL of 0.2% TFA prior to micro C4 ZipTipping directly onto the MALDI target using sinapinic acid as the desorption matrix (10 mg/ml in 0.1% TFA:Acetonitrile 50:50, v/v). The centroid mass of the target protein in the control sample was compared with the centroid mass of the target protein incubated with compound. A shift in the centroid mass of the treated protein compared to the untreated protein was divided by the molecular weight of the compound. This number corresponds to the percentage of modified protein after one hour incubation. Results from this assay are reported in Table A under the column “ERK1 Mass Mod (%).”

A further experiment has as its target T2, MEK1 activated ERK1 (Homo sapiens, UniProt P27361).
T2 construct: purchased Millipore (Billerica, Mass.) 14-439-K
The experiment is described as follows: Omnia continuous-read kinase assay for potency against MEK1 activated ERK1. Conditions: MEK1 activated ERK1, ATP at KM; read-out: ERK1 Omnia WT ATP KM IC50. The format is biochemical. In a few lines:
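Apparent IC50 came from initial reaction slopes (RFU vs time) plotted against log inhibitor with a variable-slope fit. Reactions were started with ERK1 (4 nM final) added to 50 μM ATP, roughly at its appKM, and 10 μM Sox-conjugated ST17 peptide in 20 mM Tris pH 7.5, 5 mM MgCl2. Fluorescence was monitored every 71 seconds.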

For experiment [1], the system named is ERK1/2 phosphorylation of p90RSK in HT29 cells. Put plainly: pRSK MSD Assay in HT29 cells. The format is cell-based. The conditions noted are these: Homo sapiens, HT-29, read-out: ERK1/ERK2 PRSK MSD HT29 EC50. Summed up:
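Serum-starved HT29 cells (0.1% FBS overnight) treated with test compound for 120 min at 37° C, then lysed with protease and phosphatase inhibitors. Phospho-p90RSK quantified by MSD sandwich immunoassay: RSK capture antibody, phospho-RSK detection antibody plus Sulfo-tagged antibody, electrochemiluminescence read.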

For experiment [2], the system named is HT-29 cells (colorectal adenocarcinoma). Put plainly: Inhibition of cancer cell proliferation, HT-29 (CellTiterGlo, 72 hours). It is filed as cell-based. Conditions: Homo sapiens. In a few lines: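 HT-29 cells seeded at 3000/well, then treated with 3-fold serial dilutions from a 5,000 nM two-fold solution in serum-free RPMI1640, untreated wells as control, for 72 h at 37° C. CellTiterGlo luminescence converted to cell number via a standard curve; GI50 from percent inhibition versus untreated growth.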
For orientation: In ATP-based viability assays light output follows the ATP content of the culture.

For experiment [3], the system named is A375 cells (malignant melanoma). Put plainly: Inhibition of cancer cell proliferation, A375 (CellTiterGlo, 72 hours). It is filed as cell-based. The conditions noted are these: Homo sapiens, A-375. On the procedure: Measurement of Inhibition of Cancer Cell Proliferation (A375/Malignant Melanoma)
The following protocol used an A375 cell line, which cell line is a model for malignant melanoma. A375 cells were split and 3000 cells in […] of growth medium were added per well of a flat-bottom 96-well plate. A two-fold test compound solution in serum-free DMEM was made, starting at 5,000 nM. Then, 3-fold serial dilutions were made across the plate from well 1 to well 11. Well 12, the last well in a row on the plate, was left as untreated control. 100 μl compound solutions were then transferred to the wells, so the total volume of media was 200 μl per well. Plates were returned to a 37° C. incubator, and the cells were cultured for 72 hours. To measure cell proliferation after 72 hours, media was discarded from the plates, 50 μl/well of fresh medium was added, and 50 μl CellTiterGlo solution was added (Promega Cat#G7573). The plate was covered with a dark lid and incubated for 10 min. A white sealing tape was applied to the bottom of the plate, and the plate was read in a luminescence plate reader. […] 50 μl CellTiterGlo was added per well, and the plate was read in a luminescence plate reader after 10 min. The reading was plotted vs. cell number to generate a standard curve and the equation of the curve fit. The compound-treated sample luminescence readings were converted to cell numbers using the curve-fit equation. The percent of inhibition, using untreated control as 100% growth, was then calculated. GI50 was then calculated by GraphPad Prism.

T2 sequence (P27361 whole entry): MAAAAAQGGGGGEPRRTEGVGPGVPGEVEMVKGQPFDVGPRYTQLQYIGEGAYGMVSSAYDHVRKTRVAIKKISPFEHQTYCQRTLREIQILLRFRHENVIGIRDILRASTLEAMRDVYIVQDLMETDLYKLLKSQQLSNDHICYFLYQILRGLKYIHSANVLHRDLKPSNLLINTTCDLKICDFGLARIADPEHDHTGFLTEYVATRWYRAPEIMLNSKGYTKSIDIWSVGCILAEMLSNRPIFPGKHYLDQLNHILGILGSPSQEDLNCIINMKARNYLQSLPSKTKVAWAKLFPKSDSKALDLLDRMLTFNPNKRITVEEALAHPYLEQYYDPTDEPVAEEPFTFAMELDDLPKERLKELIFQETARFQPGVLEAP
T1 sequence (P27361 whole entry): as above

Turning to `C=CC(=O)Nc1ccccc1Nc1nc(N[C@H]2CC[C@H](F)CC2)ncc1C(F)(F)F` [Compound I-111, N-(2-((2-(trans-(4-fluorocyclohexyl)amino)-5-(trifluoromethyl)pyrimidin-4-yl)amino)phenyl)acrylamide], on Erk1, the “ERK1 Mass Mod (%)” value is reported as “E (a mass modification of ≧70%)”.

Consider `C=CC(=O)Nc1ccccc1Nc1nc(Nc2ccc(N3CCN(C(C)=O)CC3)cc2OC)ncc1C(F)(F)F` [Compound I-66, N-(2-((2-((4-(4-Acetylpiperazin-1-yl)-2-methoxyphenyl)amino)-5-(trifluoromethyl)pyrimidin-4-yl)amino)phenyl)acrylamide], for which the “ERK1 Mass Mod (%)” value on Erk1 is given as “E (key: E: a mass modification of ≧70%; F: a mass modification of 31-69%; G: a mass modification ≦30%)”. Further, the half-inhibitory concentration (IC50) at MEK1 activated ERK1 was in the range of 0.501 to 0.999 µM.

As to `C=CC(=O)Nc1ccccc1Nc1nc(Nc2ccc(N(CCNC(=O)OC(C)(C)C)C(C)=O)cc2OC)ncc1Cl` [Compound I-174, tert-butyl(2-(N-(4-((4-((2-acrylamidophenyl)amino)-5-chloropyrimidin-2-yl)amino)-3-methoxyphenyl)acetamido)ethyl)carbamate], the “ERK1 Mass Mod (%)” value on Erk1 is given as “E (a mass modification of ≧70%)”. In addition, at MEK1 activated ERK1, the IC50 lay in the range of 0.501 to 0.999 µM.

On to `C=CC(=O)Nc1ccccc1Nc1nc(Nc2cc(C(=O)NOCCO)ccc2C#N)ncc1Cl` [Compound I-202, 3-((4-((2-acrylamidophenyl)amino)-5-chloropyrimidin-2-yl)amino)-4-cyano-N-(2-hydroxyethoxyl)benzamide], for which the “ERK1 Mass Mod (%)” value on Erk1 is reported as “F (a mass modification of 31-69%)”. Besides, the 50% inhibitory concentration (IC50) at MEK1 activated ERK1 lay within 0.101 to 0.5 µM.

Regarding `C=CC(=O)Nc1cc(C)ccc1Nc1nc(Nc2cc(C(=O)NC)c(F)cc2C)ncc1Cl` [Compound I-233, 5-((4-((2-acrylamido-4-methylphenyl)amino)-5-chloropyrimidin-2-yl)amino)-2-fluoro-N,4-dimethylbenzamide], the IC50 on MEK1 activated ERK1 was 0.101 to 0.5 µM. The EC50 in experiment [1] was in the range of 0.101 to 0.5 µM. For the same compound, the 50% growth inhibitory concentration (GI50) in experiment [2] and in experiment [3] was 0.101 to 0.5 µM each time.

Take `C=CC(=O)Nc1cc(C)ccc1Nc1nc(Nc2cc(C(N)=O)ccc2C)ncc1C(F)(F)F` [Compound I-79, 3-((4-((2-Acrylamido-4-methylphenyl)amino)-5-(trifluoromethyl)pyrimidin-2-yl)amino)-4-methylbenzamide]: on MEK1 activated ERK1, the half-maximal inhibitory concentration (IC50) fell in the range of 0.101 to 0.5 µM. In addition, in experiment [1], the EC50 is < 0.1 µM. The 50% growth inhibitory concentration (GI50) in experiment [2] and in experiment [3] was < 0.1 µM each time.

Regarding `O=C(CCCl)Nc1ccccc1Nc1nc(N[C@H]2CCCN(C(=O)CO)C2)ncc1C(F)(F)F` [Compound I-22, (S)-3-Chloro-N-(2-((2-((1-(2-hydroxyacetyl)piperidin-3-yl)amino)-5-(trifluoromethyl)pyrimidin-4-yl)amino)phenyl)propanamide], on MEK1 activated ERK1, the IC50 fell in the range of 0.101 to 0.5 µM. Further, the EC50 in experiment [1] is > 1 µM. The GI50 in experiment [2] lay in the range of 0.501 to 0.999 µM; in experiment [3], 0.101 to 0.5 µM.

Take `C=CC(=O)Nc1cc(C)ccc1Nc1nc(Nc2cc(C(=O)NCCO)c(F)cc2C)ncc1Cl` [Compound I-234, 5-((4-((2-acrylamido-4-methylphenyl)amino)-5-chloropyrimidin-2-yl)amino)-2-fluoro-N-(2-hydroxyethyl)-4-methylbenzamide]: the concentration for half-maximal inhibition (IC50) at MEK1 activated ERK1 was 0.101 to 0.5 µM. In addition, the EC50 in experiment [1] fell in the range of 0.101 to 0.5 µM. For the same compound, the GI50 in experiment [2] and in experiment [3] was 0.101 to 0.5 µM in each case.

Take `C=CC(=O)Nc1ccccc1Nc1nc(Nc2cc(C(=O)NCCO)c(F)cc2C)ncc1Cl` [Compound I-232, 5-((4-((2-acrylamidophenyl)amino)-5-chloropyrimidin-2-yl)amino)-2-fluoro-N-(2-hydroxyethyl)-4-methylbenzamide]: at MEK1 activated ERK1, the half-inhibitory concentration (IC50) was 0.101 to 0.5 µM. For the same compound, the EC50 in experiment [1] lay in the range of 0.101 to 0.5 µM. Further, the 50% growth inhibitory concentration (GI50) in experiment [2] is < 0.1 µM; in experiment [3], 0.101 to 0.5 µM.

Consider `C=CC(=O)Nc1ccccc1Nc1nc(N[C@@H]2CCC[C@H](C(=O)O)C2)ncc1Cl` (racemic) [Compound I-133, Rac-3-((4-((2-acrylamidophenyl)amino)-5-chloropyrimidin-2-yl)amino)-cis-cyclohexanecarboxylic acid], for which the “ERK1 Mass Mod (%)” value at Erk1 is recorded as “E (a mass modification of ≧70%)”. The half-inhibitory concentration (IC50) on MEK1 activated ERK1 fell in the range of 0.101 to 0.5 µM.

For the compound `C=CC(=O)Nc1ccccc1Nc1nc(Nc2ccc(N3CCN(C(C)=O)CC3)cc2OC)ncc1Cl` [Compound I-149, N-(2-((2-((4-(4-acetylpiperazin-1-yl)-2-methoxyphenyl)amino)-5-chloropyrimidin-4-yl)amino)phenyl)acrylamide], the “ERK1 Mass Mod (%)” value at Erk1 was “E (key: E: a mass modification of ≧70%; F: a mass modification of 31-69%; G: a mass modification ≦30%)”. Further, the IC50 on MEK1 activated ERK1 is 0.101 to 0.5 µM.

On to `C=CC(=O)N[C@H]1CCCC[C@@H]1Nc1nc(N[C@H]2CCCN(C(=O)CO)C2)ncc1C(F)(F)F` (racemic) [Compound I-27, Rac-N-(2-((2-(((R)-1-(2-hydroxyacetyl)piperidin-3-yl)amino)-5-(trifluoromethyl)pyrimidin-4-yl)amino)-trans-cyclohexyl)acrylamide], for which the “ERK1 Mass Mod (%)” value on Erk1 is listed as “F (key: E: a mass modification of ≧70%; F: a mass modification of 31-69%; G: a mass modification ≦30%)”. Moreover, in experiment [1], the EC50 lay within 0.501 to 0.999 µM.

For the compound `CC(=O)N1CCC[C@H](Nc2ncc(C(F)(F)F)c(N[C@H]3[C@@H](C(N)=O)[C@@H]4C=C[C@H]3C4)n2)C1` [Compound I-308, (1S,2S,3R,4R)-3-((2-(((S)-1-acetylpiperidin-3-yl)amino)-5-(trifluoromethyl)pyrimidin-4-yl)amino)bicyclo[2.2.1]hept-5-ene-2-carboxamide], at MEK1 activated ERK1, the IC50 lay in the range of 0.101 to 0.5 µM. The EC50 in experiment [1] was > 1 µM. Also, the concentration for 50% growth inhibition (GI50) in experiment [2] and in experiment [3] was 0.101 to 0.5 µM in each case.

Turning to `C=CC(=O)Nc1cc(C)ccc1Nc1nc(Nc2ccncc2C)ncc1Cl` [Compound I-236, N-(2-((5-chloro-2-((3-methylpyridin-4-yl)amino)pyrimidin-4-yl)amino)-5-methylphenyl)acrylamide], the concentration for half-maximal inhibition (IC50) at MEK1 activated ERK1 was 0.101 to 0.5 µM. Moreover, the EC50 in experiment [1] lay in the range of 0.101 to 0.5 µM. In addition, the results for the GI50 in experiment [2] and in experiment [3] were 0.101 to 0.5 µM and < 0.1 µM, respectively.

On to `C=CC(=O)Nc1cc(C)ccc1Nc1nc(Nc2ccnc(OC)c2)ncc1Cl` [Compound I-235, N-(2-((5-chloro-2-((2-methoxypyridin-4-yl)amino)pyrimidin-4-yl)amino)-5-methylphenyl)acrylamide], for which, at MEK1 activated ERK1, the half-inhibitory concentration (IC50) fell in the range of 0.101 to 0.5 µM. Besides, the EC50 in experiment [1] was < 0.1 µM. The GI50 in experiment [2] and in experiment [3] was < 0.1 µM throughout.

Regarding `C=CC(=O)Nc1ccccc1Nc1nc(Nc2cc(C(=O)NC)c(F)cc2C)ncc1C(F)(F)F` [Compound I-80, 5-((4-((2-Acrylamidophenyl)amino)-5-(trifluoromethyl)pyrimidin-2-yl)amino)-2-fluoro-N,4-dimethylbenzamide], the IC50 on MEK1 activated ERK1 lay in the range of 0.101 to 0.5 µM. Moreover, the EC50 in experiment [1] was in the range of 0.101 to 0.5 µM. Further, the GI50 in experiment [2] was < 0.1 µM; in experiment [3], 0.101 to 0.5 µM.

For the compound `C=CC(=O)Nc1ccccc1Nc1nc(Nc2cc(C(=O)NCCO)c(F)cc2C)ncc1C(F)(F)F` [Compound I-81, 5-((4-((2-Acrylamidophenyl)amino)-5-(trifluoromethyl)pyrimidin-2-yl)amino)-2-fluoro-N-(2-hydroxyethyl)-4-methylbenzamide], at MEK1 activated ERK1, the IC50 was 0.101 to 0.5 µM. The EC50 in experiment [1] lay in the range of 0.101 to 0.5 µM. Besides, the GI50 in experiment [2] and in experiment [3] was < 0.1 µM in each case.
